Several values for one entry are separate records, joined by “and”; a condition that tells them apart may be missing. Equal entries are not always repeated.
System: cos-7 cells
Test: DNA transfection: luciferase expression relative to Lipofectamine 2000
Assay type: cell-based
Conditions: for luciferase expression (second part of table, values relative to LIPO2000): 300 ng of DNA per well; for Luciferase expression as a percentage of that achieved using Lipofectamine 2000: 300 ng Luciferase DNA per well, luciferase assay after 48 hours
Procedure, shortened: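 cos-7 cells were transfected with 300 ng/well luciferase DNA complexed with lipid at ratios from 2.5 to 25 w/w. Bright-Glo luminescence was read after 48 hours and converted to ng luciferase by standard curve. Data are percent of the Lipofectamine 2000 control (2.5 w/w).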

SMILES | luciferase expression (second part of table, values relative to LIPO2000) (lipid/DNA 2.5 w/w) | luciferase expression (second part of table, values relative to LIPO2000) (lipid/DNA 5 w/w) | luciferase expression (second part of table, values relative to LIPO2000) (lipid/DNA 10 w/w) | luciferase expression (second part of table, values relative to LIPO2000) (lipid/DNA 15 w/w) | luciferase expression (second part of table, values relative to LIPO2000) (lipid/DNA 20 w/w) | luciferase expression (second part of table, values relative to LIPO2000) (lipid/DNA 25 w/w) | Luciferase expression as a percentage of that achieved using Lipofectamine 2000 (lipid/DNA 2.5 w/w) [%] | Luciferase expression as a percentage of that achieved using Lipofectamine 2000 (lipid/DNA 5 w/w) | Luciferase expression as a percentage of that achieved using Lipofectamine 2000 (lipid/DNA 10 w/w) [%] | Luciferase expression as a percentage of that achieved using Lipofectamine 2000 (lipid/DNA 15 w/w) | Luciferase expression as a percentage of that achieved using Lipofectamine 2000 (lipid/DNA 20 w/w) [%] | Luciferase expression as a percentage of that achieved using Lipofectamine 2000 (lipid/DNA 25 w/w)
CCCCCCCCCCCCNC(=O)CCN(CCC(=O)NCCCCCCCCCCCC)C(C)(CO)CO [ND26] | 13.4 | 2.3 | 0.1 | 0.0 | 0.0 | 0.0 | – | – | – | – | – | –
CCCCCCCCCCOC(=O)CCN(CCC(=O)OCCCCCCCCCC)C(CC)(CO)CO [LB34] | – | – | – | – | – | – | 0.1 | 0.1% | 0.2 | 0.4% | 0.1 | 0.1%
CCCCCCCCCCCCCCCOC(=O)CCN(CCC(=O)OCCCCCCCCCCCCCCC)C(C)(CO)CO [LG26] | – | – | – | – | – | – | 0.6 | 13.0% | 1.9 | 0.5% | 0.3 | 0.4%
CCCCCCCCCCOC(=O)CC[N+](C)(CCCOC)CCC(=O)OCCCCCCCCCC.[I-] [QB1] | – | – | – | – | – | – | 0.4 | 0.3% | 0.4 | 0.3% | 0.4 | 0.4%
CCCCCCCCCCCCCCCOC(=O)CCN(CC)CCN(CC)CCC(=O)OCCCCCCCCCCCCCCC [LG61] | – | – | – | – | – | – | 0.4 | 0.5% | 0.4 | 0.4% | 0.4 | 0.5%
CCCCCCCCCCCCOC(=O)CCN(CCC(=O)OCCCCCCCCCCCC)CCN(CCO)CCO [LD86] | – | – | – | – | – | – | – | – | 29.6 | 16.0% | – | –
CCCCCCCCCCCCCCCOC(=O)CC[N+](C)(CCC(=O)OCCCCCCCCCCCCCCC)CCC1CCC[N+]1(C)C.[I-].[I-] (stereo not shown) [QG77] | – | – | – | – | – | – | 0.5 | 0.6% | 1.5 | 5.6% | 18.8 | 29.5%
CCCCCCCCCCCCCCCOC(=O)CCN(C)CCN(C)CCC(=O)OCCCCCCCCCCCCCCC [LG60] | – | – | – | – | – | – | 0.9 | 1.0% | 0.8 | 0.9% | 0.8 | 1.0%
CCCCCCCCCCOC(=O)CCN(CCN(CCC(=O)OCCCCCCCCCC)C(C)C)C(C)C [LB62] | – | – | – | – | – | – | 0.1 | 0.1% | 0.1 | 0.1% | 0.1 | 0.1%
CCCCCCCCCCOC(=O)CCN(CCCO)CCC(=O)OCCCCCCCCCC [LB20] | – | – | – | – | – | – | 0.1 | 0.1% | 0.4 | 0.2% | 0.3 | 0.7%
CCCCCCCCCCCCCCCCCCOC(=O)CCN(CCOC)CCC(=O)OCCCCCCCCCCCCCCCCCC [LH10] | – | – | – | – | – | – | 0.0 | 0.0% | 0.0 | 0.0% | 0.0 | 0.0%
CCCCCCCCCCCCCCCCCCOC(=O)CCN(CCC(=O)OCCCCCCCCCCCCCCCCCC)CCc1ccc(OC)c(OC)c1 [LH17] | – | – | – | – | – | – | 0.0 | 0.0% | 0.0 | 0.0% | 0.0 | 0.0%
CCCCCCCCCCCCCCCCCCOC(=O)CCN(CCCO)CCC(=O)OCCCCCCCCCCCCCCCCCC [LH20] | – | – | – | – | – | – | 0.0 | 0.0% | 0.0 | 0.0% | 0.0 | 0.0%
CCCCCCCCCCCCCCOC(=O)CC[N+](C)(CCC(=O)OCCCCCCCCCCCCCC)CC1COC(C)(C)O1.[I-] (stereo not shown) [QF7] | – | – | – | – | – | – | 0.0 | 0.0% | 0.0 | 0.0% | 0.0 | 0.0%
CCCCCCCCCCOC(=O)CCN(CCCN(C)C)CCC(=O)OCCCCCCCCCC [LB80] | – | – | – | – | – | – | 0.7 | 0.8% | 0.1 | 0.2% | 1.0 | 1.5%
CCCCCCCCCCOC(=O)CCN(C)CCCN(C)CCC(=O)OCCCCCCCCCC [LB63] | – | – | – | – | – | – | 0.1 | 0.2% and 0.1% | 0.1 | 1.0% and 0.1% | 0.1 | 0.2% and 0.1%
CCCCCCCCCCCCCCCOC(=O)CCN(CCC(=O)OCCCCCCCCCCCCCCC)CCc1ccc(OC)c(OC)c1 [LG17] | – | – | – | – | – | – | 0.4 | 0.3% | 0.1 | 0.0% | 0.3 | 0.3%
CCCCCCCCCCCCOC(=O)CC[N+](C)(CCC[N+](C)(CCO)CCO)CCC(=O)OCCCCCCCCCCCC.[I-].[I-] [QD87] | – | – | – | – | – | – | – | – | 0.5 | 0.7% | – | –
CCCCCCCCCCOC(=O)CCN(CCC(=O)OCCCCCCCCCC)CCN1CCCC1 [LB76] | – | – | – | – | – | – | 0.1 | 0.1% | 0.1 | 0.1% | 0.1 | 0.1%
CCCCCCCCCCCCCCCOC(=O)CCN(CCC(=O)OCCCCCCCCCCCCCCC)C(CO)CO [LG25] | 15.9 | 32.0 | 43.2 | 56.9 | 42.1 | 63.9 | 15.9 | 32.0% | 43.2 | 56.9% | 42.1 | 63.9%
CCCCCCCCCCCCCCCOC(=O)CC[N+](C)(CCC(=O)OCCCCCCCCCCCCCCC)CCC1OCCO1.[I-] [QG6] | – | – | – | – | – | – | 0.0 | 0.0% | 0.0 | 0.0% | 0.0 | 0.0%
